{"source": "patent US10689377B2", "about": "(Mirati Therapeutics, Inc., priority 2017, dated 2020)", "data": [{"molecular_target": "KRas G12C (Homo sapiens, UniProt P01116, G12C)", "sequence (P01116 1-188 isoform P01116-2 G12C)": "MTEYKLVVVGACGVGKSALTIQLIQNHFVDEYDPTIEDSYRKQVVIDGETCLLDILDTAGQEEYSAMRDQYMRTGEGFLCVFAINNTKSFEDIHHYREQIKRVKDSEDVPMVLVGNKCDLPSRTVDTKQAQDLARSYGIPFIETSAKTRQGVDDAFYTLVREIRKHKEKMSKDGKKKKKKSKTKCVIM", "experiment": "Cellular inhibition of KRas G12C measured by Phospho-ERK in NCI-H358 cells", "assay_type": "cell-based", "details": "pERK(Thr202/Tyr204) normalized with GAPDH, NCI-H358 cells, 3 hours; read-out: IC50", "procedure,_shortened": "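Ratio of phospho-ERK(Thr202/Tyr204) to GAPDH, read by near-infrared secondary antibodies on fixed, permeabilised NCI-H358 cells, expressed relative to DMSO control. Compound exposure was 3 h at 0.5% DMSO. IC50 values come from 4-parameter curve fits.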", "units": {"IC50": "nM"}, "values": [{"smiles": "C=CC(=O)N1CCN(c2nc(OCCN(C)C)nc3c2CCN(c2cc(O)cc4ccccc24)C3)CC1CC#N", "note": "(centres unmarked) [Example 170, 2-(1-acryloyl-4-(2-(2-(dimethylamino)ethoxy)-7-(3-hydroxynaphthalen-1-yl)-5,6,7,8-tetrahydropyrido[3,4-d]pyrimidin-4-yl)piperazin-2-yl)acetonitrile]", "IC50": "0.1 to 1000"}, {"smiles": "C=CC(=O)N1CCN(c2nc(OCCN(C)C)nc3c2CCN(c2cc(O)cc4ccccc24)C3)C(CCO)C1", "note": "(centres unmarked) [Example 172, 1-(4-(2-(2-(dimethylamino)ethoxy)-7-(3-hydroxynaphthalen-1-yl)-5,6,7,8-tetrahydropyrido[3,4-d]pyrimidin-4-yl)-3-(2-hydroxyethyl)piperazin-1-yl)prop-2-en-1-one]", "IC50": "> 1000"}, {"smiles": "C=CC(=O)N1CCN(c2nc(OC[C@H]3CCC(C)(C)N3)nc3c2CCN(c2cc(O)cc4ccccc24)C3)CC1", "note": "[Example 174, (R)-1-(4-(2-((5,5-dimethylpyrrolidin-2-yl)methoxy)-7-(3-hydroxynaphthalen-1-yl)-5,6,7,8-tetrahydropyrido[3,4-d]pyrimidin-4-yl)piperazin-1-yl)prop-2-en-1-one]", "IC50": "> 1000"}, {"smiles": "C=CC(=O)N1CCN(c2nc(OCCN(C)C)nc3c2CCN(c2cc(O)cc4ccccc24)C3)C[C@@H]1CC#N", "note": "[Example 176, 2-[(2S)-4-[2-[2-(dimethylamino)ethoxy]-7-(3-hydroxy-1-naphthyl)-6,8-dihydro-5H-pyrido[3,4-d]pyrimidin-4-yl]-1-prop-2-enoyl-piperazin-2-yl] acetonitrile]", "IC50": "0.1 to 1000"}, {"smiles": "C=CC(=O)N1CCN(c2nc(OC[C@H]3CCCN3C)nc3c2CCN(c2cc(O)cc4ccccc24)C3)CC1CC#N", "note": "(stereo partly drawn) [Example 178, 2-[4-[7-(3-hydroxy-1-naphthyl)-2-[[(2R)-1-methylpyrrolidin-2-yl]methoxy]-6,8-dihydro-5H-pyrido[3,4-d]pyrimidin-4-yl]-1-prop-2-enoyl-piperazin-2-yl]acetonitrile]", "IC50": "0.1 to 1000"}, {"smiles": "C=CC(=O)N1CCN(c2nc(OC[C@@H]3CCN(C)C3)nc3c2CCN(c2cc(O)cc4ccccc24)C3)CC1CC#N", "note": "(stereo partly drawn) [Example 179, 2-[4-[7-(3-hydroxy-1-naphthyl)-2-[[(3R)-1-methylpyrrolidin-3-yl]methoxy]-6,8-dihydro-5H-pyrido[3,4-d]pyrimidin-4-yl]-1-prop-2-enoyl-piperazin-2-yl]acetonitrile]", "IC50": "0.1 to 1000"}, {"smiles": "C=CC(=O)N1CCN(c2nc(OCCCN3C[C@@H]4C[C@H]3CO4)nc3c2CCN(c2c(C)ccc4[nH]ncc24)C3)CC1", "note": "[Example 181, 1-(4-(2-(3-((1S,4S)-2-oxa-5-azabicyclo[2.2.1]heptan-5-yl)propoxy)-7-(5-methyl-1H-indazol-4-yl)-5,6,7,8-tetrahydropyrido[3,4-d]pyrimidin-4-yl)piperazin-1-yl)prop-2-en-1-one]", "IC50": "> 1000"}, {"smiles": "C=CC(=O)N1CCN(c2nc(OCCCO)nc3c2CCN(c2cc(O)cc4ccccc24)C3)CC1", "note": "[Example 184, 1-[4-[7-(3-hydroxy-1-naphthyl)-2-(3-hydroxypropoxy)-6,8-dihydro-5H-pyrido[3,4-d]pyrimidin-4-yl]piperazin-1-yl]prop-2-en-1-one]", "IC50": "> 1000"}, {"smiles": "C=CC(=O)N1CCN(c2nc(OCCCN3C[C@H]4C[C@@H]3CO4)nc3c2CCN(c2cc(O)cc4ccccc24)C3)CC1", "note": "[Example 185, 1-(4-(2-(3-((1R,4R)-2-oxa-5-azabicyclo[2.2.1]heptan-5-yl)propoxy)-7-(3-hydroxynaphthalen-1-yl)-5,6,7,8-tetrahydropyrido[3,4-d]pyrimidin-4-yl)piperazin-1-yl)prop-2-en-1-one]", "IC50": "0.1 to 1000"}, {"smiles": "C=CC(=O)N1CCN(c2nc(-c3cccc(CN4CCOCC4)c3)nc3c2CCN(c2cc(O)cc4ccccc24)C3)CC1", "note": "[Example 186]", "IC50": "> 1000"}, {"smiles": "C=CC(=O)N1CCN(c2nc(OC[C@H]3CCN(C)C3)nc3c2CCN(c2cc(O)cc4ccccc24)C3)CC1", "note": "[Example 188, (S)-1-(4-(7-(3-hydroxynaphthalen-1-yl)-2-((1-methylpyrrolidin-3-yl)methoxy)-5,6,7,8-tetrahydropyrido[3,4-d]pyrimidin-4-yl)piperazin-1-yl)prop-2-en-1-one]", "IC50": "0.1 to 1000"}, {"smiles": "C=CC(=O)N1CCN(c2nc(OCC3CCN(Cc4ccccc4)C3)nc3c2CCN(c2cc(O)cc4ccccc24)C3)CC1", "note": "(centres unmarked) [Example 189, 1-(4-(2-((1-benzylpyrrolidin-3-yl)methoxy)-7-(3-hydroxynaphthalen-1-yl)-5,6,7,8-tetrahydropyrido[3,4-d]pyrimidin-4-yl)piperazin-1-yl)prop-2-en-1-one]", "IC50": "> 1000"}, {"smiles": "C=CC(=O)N1CCN(c2nc(OCC3CCN(C4CC4)C3)nc3c2CCN(c2cc(O)cc4ccccc24)C3)CC1", "note": "(centres unmarked) [Example 190, 1-(4-(2-((1-cyclopropylpyrrolidin-3-yl)methoxy)-7-(3-hydroxynaphthalen-1-yl)-5,6,7,8-tetrahydropyrido[3,4-d]pyrimidin-4-yl)piperazin-1-yl)prop-2-en-1-one]", "IC50": "0.1 to 1000"}, {"smiles": "C=CC(=O)N1[C@H](C)CN(c2nc(OCCCN3CCOCC3)nc3c2CCN(c2cc(O)cc4ccccc24)C3)C[C@@H]1C", "note": "[Example 191, 1-((2S,6R)-4-(7-(3-hydroxynaphthalen-1-yl)-2-(3-morpholinopropoxy)-5,6,7,8-tetrahydropyrido[3,4-d]pyrimidin-4-yl)-2,6-dimethylpiperazin-1-yl)prop-2-en-1-one]", "IC50": "> 1000"}, {"smiles": "C=CC(=O)N1CCN(c2nc(OC[C@@H]3CCCN(C)C3)nc3c2CCN(c2cc(O)cc4ccccc24)C3)CC1", "note": "[Example 192, (R)-1-(4-(7-(3-hydroxynaphthalen-1-yl)-2-((1-methylpiperidin-3-yl)methoxy)-5,6,7,8-tetrahydropyrido[3,4-d]pyrimidin-4-yl)piperazin-1-yl)prop-2-en-1-one]", "IC50": "0.1 to 1000"}, {"smiles": "C=CC(=O)N1CCN(c2nc(OCC3CN(C)CCO3)nc3c2CCN(c2cc(O)cc4ccccc24)C3)CC1", "note": "(centres unmarked) [Example 193, 1-(4-(7-(3-hydroxynaphthalen-1-yl)-2-((4-methylmorpholin-2-yl)methoxy)-5,6,7,8-tetrahydropyrido[3,4-d]pyrimidin-4-yl)piperazin-1-yl)prop-2-en-1-one]", "IC50": "0.1 to 1000"}, {"smiles": "C=CC(=O)N1CCN(c2nc(OCC3COCCN3C)nc3c2CCN(c2cc(O)cc4ccccc24)C3)CC1", "note": "(centres unmarked) [Example 194, 1-(4-(7-(3-hydroxynaphthalen-1-yl)-2-((4-methylmorpholin-3-yl)methoxy)-5,6,7,8-tetrahydropyrido[3,4-d]pyrimidin-4-yl)piperazin-1-yl)prop-2-en-1-one]", "IC50": "> 1000"}, {"smiles": "C=CC(=O)N1CCN(c2nc(OC[C@H]3CCCCN3C)nc3c2CCN(c2cc(O)cc4ccccc24)C3)CC1", "note": "[Example 195, (R)-1-(4-(7-(3-hydroxynaphthalen-1-yl)-2-((1-methylpiperidin-2-yl)methoxy)-5,6,7,8-tetrahydropyrido[3,4-d]pyrimidin-4-yl)piperazin-1-yl)prop-2-en-1-one]", "IC50": "> 1000"}, {"smiles": "C=CC(=O)N1CCN(c2nc(OC[C@@H]3CCCCN3C)nc3c2CCN(c2cc(O)cc4ccccc24)C3)CC1", "note": "[Example 196, (S)-1-(4-(7-(3-hydroxynaphthalen-1-yl)-2-((1-methylpiperidin-2-yl)methoxy)-5,6,7,8-tetrahydropyrido[3,4-d]pyrimidin-4-yl)piperazin-1-yl)prop-2-en-1-one]", "IC50": "0.1 to 1000"}, {"smiles": "C=CC(=O)N1CCN(c2nc(OC[C@@H]3CCCN3CC)nc3c2CCN(c2cc(O)cc4ccccc24)C3)CC1", "note": "[Example 197, (S)-1-(4-(2-((1-ethylpyrrolidin-2-yl)methoxy)-7-(3-hydroxynaphthalen-1-yl)-5,6,7,8-tetrahydropyrido[3,4-d]pyrimidin-4-yl)piperazin-1-yl)prop-2-en-1-one]", "IC50": "0.1 to 1000"}, {"smiles": "C/C=C/C(=O)N1CCN(c2nc(OC[C@@H]3CCCN3C)nc3c2CCN(c2cc(O)cc4ccccc24)C3)CC1", "note": "[Example 198, (S,E)-1-(4-(7-(3-hydroxynaphthalen-1-yl)-2-((1-methylpyrrolidin-2-yl)methoxy)-5,6,7,8-tetrahydropyrido[3,4-d]pyrimidin-4-yl)piperazin-1-yl)but-2-en-1-one]", "IC50": "> 1000"}, {"smiles": "CN(C)C/C=C/C(=O)N1CCN(c2nc(OC[C@@H]3CCCN3C)nc3c2CCN(c2cc(O)cc4ccccc24)C3)CC1", "note": "[Example 199, (S,E)-4-(dimethylamino)-1-(4-(7-(3-hydroxynaphthalen-1-yl)-2-((1-methylpyrrolidin-2-yl)methoxy)-5,6,7,8-tetrahydropyrido[3,4-d]pyrimidin-4-yl)piperazin-1-yl)but-2-en-1-one]", "IC50": "> 1000"}, {"smiles": "C=CC(=O)N1CCN(c2nc(OC[C@@H]3CCCN3C)nc3c2CCN(c2cccc4ccccc24)C3)CC1", "note": "[Example 200, (S)-1-(4-(2-((1-methylpyrrolidin-2-yl)methoxy)-7-(naphthalen-1-yl)-5,6,7,8-tetrahydropyrido[3,4-d]pyrimidin-4-yl)piperazin-1-yl)prop-2-en-1-one]", "IC50": "> 1000"}, {"smiles": "C=CC(=O)N1CCN(c2nc(OC[C@@H]3CCCN3C)nc3c2CCN(c2cccc4ccccc24)C3)C[C@H]1C", "note": "[Example 201, 1-((R)-2-methyl-4-(2-(((S)-1-methylpyrrolidin-2-yl)methoxy)-7-(naphthalen-1-yl)-5,6,7,8-tetrahydropyrido[3,4-d]pyrimidin-4-yl)piperazin-1-yl)prop-2-en-1-one]", "IC50": "> 1000"}, {"smiles": "C=CC(=O)N1CCN(c2nc(OC[C@@H]3CCCN3C)nc3c2CCN(c2cc(O)cc4ccccc24)C3)[C@@H](C)C1", "note": "[Example 202, 1-((S)-4-(7-(3-hydroxynaphthalen-1-yl)-2-(((S)-1-methylpyrrolidin-2-yl)methoxy)-5,6,7,8-tetrahydropyrido[3,4-d]pyrimidin-4-yl)-3-methylpiperazin-1-yl)prop-2-en-1-one]", "IC50": "0.1 to 1000"}, {"smiles": "C=CC(=O)N1CCN(c2nc(OC[C@H]3CCCN3C)nc3c2CCN(c2cc(O)cc4ccccc24)C3)[C@@H](C)C1", "note": "[Example 203, 1-((S)-4-(7-(3-hydroxynaphthalen-1-yl)-2-(((R)-1-methylpyrrolidin-2-yl)methoxy)-5,6,7,8-tetrahydropyrido[3,4-d]pyrimidin-4-yl)-3-methylpiperazin-1-yl)prop-2-en-1-one]", "IC50": "0.1 to 1000"}]}]}
